Test results as given in publication PMC1283537, “Systematic Discovery of New Recognition Peptides Mediating Protein Interaction Networks” (PLoS Biology, 2005).
One block for each sequence: values may come before it. Where no end group is shown, it is not given here.

Assays:
[1] = tested on: Cdlc2 (Dynein light chain 2); experiment: Fluorescence polarization binding of FITC-labelled peptides to Cdlc2; design: species or system Drosophila melanogaster; conditions: FITC-labelled peptide 10 nM, PBS pH 7.4, protein concentrations 5–400 μM
abl-SH3 domain = target: T1, abl-SH3 domain (Homo sapiens, UniProt P00519); experiment: Fluorescence polarization preliminary test with abl-SH3 binding peptide; conditions: FITC N-terminal labeled peptide
T1 construct: preparation of human abl-SH3 domain [9]; made in house

Translin = target: T2, Translin (Drosophila melanogaster, UniProt Q7JVK6); experiment: Fluorescence polarization binding of FITC-labelled peptides to Translin; conditions: FITC N-terminal labeled peptide 10 nM in PBS pH 7.4, 5 min at room temperature, non-linear regression on three independent experiments
T2 sequence (Q7JVK6 1-235): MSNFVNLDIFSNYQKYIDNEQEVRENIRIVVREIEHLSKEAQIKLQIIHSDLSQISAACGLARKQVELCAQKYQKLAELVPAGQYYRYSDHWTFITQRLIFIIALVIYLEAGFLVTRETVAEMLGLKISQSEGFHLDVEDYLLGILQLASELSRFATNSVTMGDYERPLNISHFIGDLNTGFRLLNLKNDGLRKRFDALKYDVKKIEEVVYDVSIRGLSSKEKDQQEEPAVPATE

[2] = target: T3, protein phosphatase 1 (PP1) (Homo sapiens, UniProt P36873); experiment: Fluorescence polarization binding of FITC-labelled peptides to PP1; design: species or system H. sapiens
T3 construct: made in house; host or cells: E. coli BL21(DE3)
T3 sequence (P36873 whole entry): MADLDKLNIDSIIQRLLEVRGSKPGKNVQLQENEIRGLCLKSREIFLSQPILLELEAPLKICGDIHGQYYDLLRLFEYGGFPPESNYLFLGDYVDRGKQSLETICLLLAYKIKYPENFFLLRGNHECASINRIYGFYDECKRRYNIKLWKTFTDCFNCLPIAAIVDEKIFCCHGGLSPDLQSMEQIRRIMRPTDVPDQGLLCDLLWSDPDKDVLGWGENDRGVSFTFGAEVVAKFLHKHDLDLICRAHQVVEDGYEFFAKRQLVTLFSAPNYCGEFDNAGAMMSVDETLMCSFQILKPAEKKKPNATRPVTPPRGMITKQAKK

T1 sequence (P00519 61-121 limits assumed): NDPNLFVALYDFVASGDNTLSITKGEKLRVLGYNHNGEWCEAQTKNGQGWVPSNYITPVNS

Sequence: ERAIQTENA [CG33213/104-112, Cdlc2 native peptide with the IQTE variant motif]
- binding to Cdlc2 [1]: No binding

Sequence: GAPTYSPPPPP [GAPTYSPPPPP]
- Kd (abl-SH3 domain): 3 ± 0.4 µM

Sequence: PFGTQTSPP [CG32130/215-223, additional peptide containing the canonical TQT motif, reference compound]
- binding to Cdlc2 [1]: No binding

Further lines, results first:

- binding to Cdlc2 [1]: No binding
Sequence: ERAAAAENA [mutant of the Cdlc2 native peptide, motif positions mutated to Alanine]

- Kd (Translin): > 300 µM
Sequence: VSASPAAVAAPV (also: FITC label, position not given here) [Mutant]

- Kd ([2]; FITC N-terminal labeled peptide 10 nM in PBS pH 7.4, 5 min at room temperature, normalized to extrapolated Bmax, non-linear regression, three independent experiments): 65 ± 14 µM
- specific binding to PP1 ([2]; result in words): retain some affinity
Sequence: VSASPAAVAAPV [Mutant]
